Reference: patent US20240270699A1, “COMPOUNDS HAVING N-ARYLPYRIMIDIN-2-AMINE DERIVATIVES AS THERAPEUTIC AGENTS” (Lomond Therapeutics, Inc., priority 2021, published 2024)

Assays:
recombinant HPK1 protein = target: T1, recombinant HPK1 protein (Homo sapiens, UniProt Q92918); test: Primary assay of HPK1 enzymatic activity inhibition (ADP-Glo luminescence); assay type: biochemical; details: recombinant HPK1, MBP substrate, 1 hour at room temperature
T1 construct: purchased Promega V6398
T1 sequence (Q92918 1-346 limits assumed): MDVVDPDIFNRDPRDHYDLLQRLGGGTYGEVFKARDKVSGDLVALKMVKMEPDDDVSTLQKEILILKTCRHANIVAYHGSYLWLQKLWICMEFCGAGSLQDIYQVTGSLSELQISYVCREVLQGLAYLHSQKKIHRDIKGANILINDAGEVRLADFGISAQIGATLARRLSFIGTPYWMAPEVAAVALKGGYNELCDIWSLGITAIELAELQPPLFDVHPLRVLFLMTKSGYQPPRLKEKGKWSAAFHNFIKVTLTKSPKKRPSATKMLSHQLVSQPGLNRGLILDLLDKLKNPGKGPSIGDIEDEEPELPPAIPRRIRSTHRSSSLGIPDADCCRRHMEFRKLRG

Jurkat cells = test: IL-2 release Jurkat assay (anti-CD3/anti-CD28 stimulation, IL-2 ELISA); assay type: cell-based, human; details: activation with 400 ng/mL aCD3 + 400 ng/mL aCD28, 24 hours
[1] = Table E: Jurkat, 1.5 μM of tested compounds
[2] = Table D: Jurkat, 6 μM of tested compounds, stimulated vehicle = B
[3] = Table B: Jurkat, 1.5 μM of tested compounds
[4] = Table C: Jurkat, 6 μM of tested compounds, stimulated vehicle = A

| IC50 (recombinant HPK1 protein) [µM] | SMILES | IL-2, pg/mL stimulated (Jurkat cells; [3]) | further results |
| --- | --- | --- | --- |
| < 0.05 | COc1cccc([C@@H](CO)Nc2nc(Nc3ccc4c(c3)CCNC4=O)ncc2-c2nc(C)no2)c1 [Compound 575, 6-[[4-[[(1S)-2-hydroxy-1-(3-methoxyphenyl)ethyl]amino]-5-(3-methyl-1,2,4-oxadiazol-5-yl)pyrimidin-2-yl]amino]-3,4-dihydro-2H-isoquinolin-1-one] | – | IL-2, pg/mL stimulated (Jurkat cells; [1]): C (100 pg/mL≤IL-2<150 pg/mL) |
| 0.05 to 0.2 | CCOC(=O)CCCCCc1nnc(-c2cnc(Nc3ccc(S(C)(=O)=O)c(C)c3)nc2N[C@H](CO)c2ccccc2)o1 [Compound 561, Ethyl 6-[5-[4-[[(1S)-2-hydroxy-1-phenyl-ethyl]amino]-2-(3-methyl-4-methylsulfonyl-anilino)pyrimidin-5-yl]-1,3,4-oxadiazol-2-yl]hexanoate] | – | IL-2, pg/mL stimulated (Jurkat cells; [2]): B (50 pg/mL≤IL-2<100 pg/mL) |
| 0.05 to 0.2 | CNC(=O)c1cnc(Nc2ccc(S(C)(=O)=O)c(C)c2)nc1N[C@H](CO)c1ccccc1 [Compound 65, 4-{[(1S)-2-hydroxy-1-phenylethyl]amino}-N-methyl-2-{[3-methyl-4-(methylsulfonyl)phenyl]amino}pyrimidine-5-carboxamide] | D (35.0 pg/mL≤IL-2) | – |
| < 0.05 | CCOC(=O)c1cnc(Nc2ccc3c(c2)CCCS3(=O)=O)nc1N[C@H](CO)c1ccccc1 [Compound 573, ethyl 2-[(1,1-dioxo-3,4-dihydro-2H-thiochromen-6-yl)amino]-4-[[(1S)-2-hydroxy-1-phenyl-ethyl]amino]pyrimidine-5-carboxylate] | – | IL-2, pg/mL stimulated (Jurkat cells; [1]): C (100 pg/mL≤IL-2<150 pg/mL) |
| 0.05 to 0.2 | CCOC(=O)c1cnc(Nc2ccc(S(C)(=O)=O)cc2F)nc1N[C@H](CO)c1ccccc1 [Compound 211, Ethyl 2-{[2-fluoro-4-(methylsulfonyl)phenyl]amino}-4-{[(1S)-2-hydroxy-1-phenylethyl]amino}pyrimidine-5-carboxylate] | – | IL-2, pg/mL stimulated (Jurkat cells; [4]): B (50 pg/mL≤IL-2<100 pg/mL) |
| 0.2 to 0.5 | CCOC(=O)c1cnc(Nc2ccc(F)c(-c3ccccc3)c2)nc1N[C@H](CO)c1ccccc1 [Compound 195, Ethyl 2-[(6-fluorobiphenyl-3-yl)amino]-4-{[(1S)-2-hydroxy-1-phenylethyl]amino}pyrimidine-5-carboxylate] | C (25.0 pg/mL≤IL-2<35.0 pg/mL) | – |
| 0.2 to 0.5 | CC(C)NC(=O)c1cnc(Nc2ccc(F)c(-c3ccccc3)c2)nc1N[C@H](CO)c1ccccc1 [Compound 293, 2-[(6-fluorobiphenyl-3-yl)amino]-4-{[(1S)-2-hydroxy-1-phenylethyl]-amino}-N-(propan-2-yl)pyrimidine-5-carboxamide] | D (35.0 pg/mL≤IL-2) | – |
| 0.2 to 0.5 | CCOC(=O)c1cnc(Nc2cccc(S(C)(=O)=O)c2)nc1N[C@H](CO)c1ccccc1 [Compound 69] | – | IL-2, pg/mL stimulated (Jurkat cells; [4]): B (50 pg/mL≤IL-2<100 pg/mL) |
| < 0.05 | CCOC(=O)c1cnc(Nc2ccc3c(c2)CCN(C)C3=O)nc1N[C@H](CO)c1ccccc1 [Compound 122, Ethyl 4-{[(1S)-2-hydroxy-1-phenylethyl]amino}-2-[(2-methyl-1-oxo-1,2,3,4-tetrahydroisoquinolin-6-yl)amino]pyrimidine-5-carboxylate] | C (25.0 pg/mL≤IL-2<35.0 pg/mL) | – |
| < 0.05 | CCOC(=O)c1cnc(Nc2ccc3c(c2)CCNC3=O)nc1N[C@H](CO)c1ccc(OC)cc1 [Compound 569, ethyl 4-[[(1S)-2-hydroxy-1-(4-methoxyphenyl)ethyl]amino]-2-[(1-oxo-3,4-dihydro-2H-isoquinolin-6-yl)amino]pyrimidine-5-carboxylate] | C (25.0 pg/mL≤IL-2<35.0 pg/mL) | – |
| 0.05 to 0.2 | CCOC(=O)c1cnc(Nc2ccc(C(=O)NC)c(Cl)c2)nc1N[C@H](CO)c1ccccc1 [Compound 560, Ethyl 2-[3-chloro-4-(methylcarbamoyl)anilino]-4-[[(1S)-2-hydroxy-1-phenyl-ethyl]amino]pyrimidine-5-carboxylate] | – | IL-2, pg/mL stimulated (Jurkat cells; [2]): D (150 pg/mL≤IL-2) |
| < 0.05 | CCOC(=O)c1cnc(Nc2ccc3c(c2)CCNC3=O)nc1N[C@H](CO)c1ccccc1 [Compound 45, Ethyl 4-{[(1S)-2-hydroxy-1-phenylethyl]amino}-2-[(1-oxo-1,2,3,4-tetrahydroisoquinolin-6-yl)amino]pyrimidine-5-carboxylate] | – | IL-2, pg/mL stimulated (Jurkat cells; [4]): B (50 pg/mL≤IL-2<100 pg/mL) |
| < 0.05 | O=S1(=O)CCCc2cc(Nc3ncc(-c4nc(CN5CCCC5)no4)c(N[C@H](CO)c4ccccc4)n3)ccc21 [Compound 586, (2S)-2-[[2-[(1,1-dioxo-3,4-dihydro-2H-thiochromen-6-yl)amino]-5-[3-(pyrrolidin-1-ylmethyl)-1,2,4-oxadiazol-5-yl]pyrimidin-4-yl]amino]-2-phenyl-ethanol] | – | IL-2, pg/mL stimulated (Jurkat cells; Table G: Jurkat, 1.0 μM of tested compounds): D (150 pg/mL≤IL-2) |
| 0.05 to 0.2 | COCCNC(=O)c1cnc(Nc2ccc(S(C)(=O)=O)c(F)c2)nc1N[C@H](CO)c1ccccc1 [Compound 401, 2-(3-fluoro-4-methylsulfonyl-anilino)-4-[[(1S)-2-hydroxy-1-phenyl-ethyl]amino]-N-(2-methoxyethyl)-pyrimidine-5-carboxamide] | – | IL-2, pg/mL stimulated (Jurkat cells; [4]): A (IL-2<50 pg/mL) |
| 0.2 to 0.5 | CCOC(=O)c1cnc(Nc2ccc(S(C)(=O)=O)cc2C)nc1N[C@H](CO)c1ccccc1 [Compound 167, Ethyl 4-{[(1S)-2-hydroxy-1-phenylethyl]amino}-2-{[2-methyl-4-(methylsulfonyl)phenyl]amino}pyrimidine-5-carboxylate] | – | IL-2, pg/mL stimulated (Jurkat cells; [4]): B (50 pg/mL≤IL-2<100 pg/mL) |
| 0.2 to 0.5 | CCNC(=O)c1cnc(Nc2ccc(F)c(-c3ccccc3)c2)nc1N[C@H](CO)c1ccccc1 [Compound 189, N-ethyl-2-[(6-fluorobiphenyl-3-yl)amino]-4-{[(1S)-2-hydroxy-1-phenylethyl]amino}pyrimidine-5-carboxamide] | C (25.0 pg/mL≤IL-2<35.0 pg/mL) | – |
| 0.05 to 0.2 | Cc1cc(Nc2ncc(C(=O)NC(C)C)c(N[C@H](CO)c3ccccc3)n2)ccc1S(C)(=O)=O [Compound 267, 4-{[(1S)-2-hydroxy-1-phenylethyl]amino}-2-{[3-methyl-4-(methylsulfonyl)phenyl]amino}-N-(propan-2-yl)pyrimidine-5-carboxamide] | D (35.0 pg/mL≤IL-2) | – |
| < 0.05 | CCOC(=O)c1cnc(Nc2ccc3c(c2)CCC(=O)N3)nc1N[C@H](CO)c1ccccc1 [Compound 46, Ethyl 4-[[(1S)-2-hydroxy-1-phenyl-ethyl]amino]-2-[(2-oxo-3,4-dihydro-1H-quinolin-6-yl)amino]pyrimidine-5-carboxylate] | – | IL-2, pg/mL stimulated (Jurkat cells; [2]): D (150 pg/mL≤IL-2) |

| SMILES | IC50 (recombinant HPK1 protein) [µM] | IL-2, pg/mL stimulated (Jurkat cells; [3]) | further results |
| --- | --- | --- | --- |
| Cc1noc(-c2cnc(Nc3ccc4c(c3)CCN(COCC[Si](C)(C)C)C4=O)nc2N[C@H](CO)c2ccccc2)n1 [Compound 582, 6-[[4-[[(1S)-2-hydroxy-1-phenyl-ethyl]amino]-5-(3-methyl-1,2,4-oxadiazol-5-yl)pyrimidin-2-yl]amino]-2-(2-trimethylsilylethoxymethyl)-3,4-dihydroisoquinolin-1-one] | 0.05 to 0.2 | – | IL-2, pg/mL stimulated (Jurkat cells; Table F: Jurkat, 1.0 μM of tested compounds): B (50 pg/mL≤IL-2<100 pg/mL) |
